Values of other authors in patent US20240065977A1, “MYDRIATIC AND ANTI-MUSCARINIC AGENT COMPOSITION FOR OPHTHALMIC USE” (SENTISS PHARMA PRIVATE LIMITED, priority 2020, published 2024).
Where two headings read alike, the source gives them in different places.

Tested on: pupil

| SMILES | Mydriasis Peak (Concentration 0.5%-3%) [min] | Mydriasis Recovery (Concentration 0.5%-3%) [days] | duration of action (pupillary dilatation) [days] | onset of action (pupillary dilatation) [min] | Mydriasis Peak (Concentration 2%-5%) [min] | Mydriasis Recovery (Concentration 2%-5%) [days] |
| --- | --- | --- | --- | --- | --- | --- |
| CN1[C@@H]2CC[C@H]1C[C@@H](OC(=O)C(CO)c1ccccc1)C2 (stereo partly drawn) [Atropine] | 30 to 40 | 7 to 12 | ≥ 7 | 40 | – | – |
| CN1[C@@H]2CC[C@H]1C[C@@H](OC(=O)C(O)c1ccccc1)C2 (stereo partly drawn) [Homatropine] | – | – | – | – | 40 to 60 | 1 to 3 |
